Results taken from patent publication US8404239B2, “Anti-Notch2 NRR antibodies” (Genentech, Inc., priority 2008, dated 2013).

Assays:
[1] = test system: intestinal cell differentiation; assay: Histology and immunohistochemistry of mouse intestine tissue; format: in vivo
From the text: (A) Total body weight change (mean+/−standard deviation) vs. time. […] Arrows mark the days of dosing. (B) Immunohistochemical analyses of small intestines. […] In each row as indicated, staining is shown for haemotoxylin and eosin (H & E), Alcian Blue for mucin and to mark secretory goblet cells, lysozyme to mark Paneth cells, Ki-67 for proliferation and Hes1 as a Notch downstream target. See FIGS. 19 and 20 for analyses of the large intestine at day 7 and of the small intestine at day 2, respectively. Bar=40 μm. (C) Comparison of Notch1- versus Notch2-specific inhibition on small intestinal cell differentiation. Small intestines from the study described in (A) were prepared for Alcian Blue and Ki-67 one day after the final dosing with α-gD, α-NRR1 or α-NRR2, as indicated. Bar=50 μm.
Formalin-fixed and paraffin-embedded mouse small intestine tissues were sectioned at 3 micron thickness. Histochemical identification of intestinal cell types was performed with Alcian blue as recommended by the manufacturer (PolyScientific). For anti-Ki67 staining, sections were pretreated with Target Retrieval Solution (S1700, DAKO), and incubated with rabbit anti-Ki67 (1:200, clone SP6, Neomarkers). Secondary goat anti-rabbit at 7.5 μg/ml (Vector labs) was detected with the Vectastain ABC Elite Kit (Vector labs). Ki67 stained sections were counterstained with Mayer's haemotoxylin. For anti-lysozyme staining, sections were processed on the Discovery XT platform (Ventana Medical Systems, Inc.) using CC1m epitope recovery conditions, OmniMap-rabbit detection and Ventana haemotoxylin II/with bluing counterstain. For HES-1 staining, anti-rat HES-1 (clone NM1, MBL, International) was followed by TSA-HRP.
The effect of inhibiting both Notch1 and Notch2 on intestinal cell fate determination was also investigated. […] The intestines were harvested and stained with H&E to reveal the crypt morphology. […] Further experimentation confirmed this observation.

HUVECs = assay: HUVEC fibrin gel bead endothelial cell sprouting assay; format: cell-based, human; conditions: HUVEC co-cultured with skin fibroblasts; 1 μM DBZ, 5 μg/ml antibodies
Method: (A) In vitro endothelial cell sprouting assay. HUVECs were coated on Cytodex beads and co-cultured with skin fibroblasts. Cultures were either mock treated (control) or treated with 1 μM of DBZ, 5 μg/ml of α-NRR1 or 5 μg/ml of α-D114. Bar=100 μm. (B) Sprout length measurements from the cultures in (A). (C) Mouse neonate retinal assay for endothelial cell sprouting and angiogenesis. Mouse neonates were injected at P1 and P3 with the indicated antibodies, and retinas were prepared at P5 to visualize perfusion of isolectin or the Ki67 marker for proliferation. Panels I and II, Bar=1 mm. Panels III-VI represent enlargements of part of panels I and II, bar=0.2 mm.
HUVEC cells were grown on fibrin gel beads as previously described (Nakatsu et al., 2003). Cytodex 3 beads (Amersham Pharmacia Biotech) were coated with 350-400 HUVECs per bead in 2 ml EGM-2 medium (Clonetics). About 200 HUVEC coated beads were imbedded in fibrin clot in one well of 12-well tissue culture plate. […] Medium was changed every two days. After seven to nine days, fibrin gels were then fixed with 4% paraformaldehyde and endothelial cells were stained with anti-CD31 (R&D Systems AF806) using a FITC-conjugated secondary antibody for detection.

LOX-IMVI melanoma cells = assay: Cell Titer Glo viability of melanoma cell line LOX-IMVI; format: cell-based, human; conditions: six days, antibodies 20 mg/ml, DAPT 5 μM, ± Jagged-1
Method: (§1) Human melanoma cell lines SK23 and LOX-IMVI were plated in medium containing 2% FBS at low density (4000 cells/well for SK23, 2500 cells/well for LOX-IMVI) in 96 well plates that were coated without (−jag-1) or with Jagged-1 ligand (+jag-1) (R&D Systems, Minneapolis, Minn.). […] An equal volume of DMSO served as the vehicle control, whereas an equal concentration of anti-gD HuB6 phage antibody served as the isotype control antibody. Cell Titer Glo assays (Promega, Madison, Wis.) were performed six days after plating. […] In FIGS. 25A and 25B, cell viability (y-axis) is expressed relative to the values from the DMSO vehicle, −jag-1 control wells.

SK23 melanoma cells = assay: Cell Titer Glo viability of melanoma cell line SK23; format: cell-based, human; conditions: six days, antibodies 20 mg/ml, DAPT 5 μM, ± Jagged-1
Method: as §1

Notch2 signaling = assay: Co-culture Notch reporter assay, Notch2 signaling (U87MG cells + Jag1 cells); format: cell-based; conditions: Jag1-induced; DAPT 5 μM
Method: (§2) NIH-3T3 cells stably transfected with Jag1 were used to induce Notch signaling in NIH-3T3 cells stably transfected with Notch1 (except for “−Jag1”, which used untransfected NIH-3T3 cells in place of the Jag1-expressing cells). […] NIH-3T3 cells stably transfected with Jag1 were used to induce Notch signaling in U87MG cells, which express high levels of Notch2. The assay was performed as described in (A). […] The assay was performed as in (A) except that the receptor-expressing cells were generated by transient transfection of plasmids expressing the indicated Notch1 receptors.
Co-culture assay in U87MG cells, as described in FIG. 10B.
(§3) NIH-3T3 cells either stably transfected with Notch 1 or transiently transfected with plasmids containing other Notch receptors were co-transfected with a Notch-responsive TP-1 (12× CSL) Firefly luciferase reporter and a constitutively active Renilla Luciferase reporter (pRL-CMV, Promega) to control for transfection efficiency. Cells are allowed to recover from the transfection from 6 hours to overnight. Treatments of antibodies and NIH-3T3 cells stably transfected with ligand are used to stimulate the receptor cells. After 20 hours, firefly and Renilla luciferase are measured with Dual Glo Luciferase Assay system (Promega). Eight replicates were analyzed for each condition by dividing the Firefly signal by the Renilla signal to control for transfection efficiency. The mean and standard deviation were calculated and values were normalized to calculated values for co-culture stimulated with NIH-3T3 cells without ligand transfected.

Notch1 signaling = assay: Co-culture Notch reporter assay, Notch1 signaling (NIH-3T3 Notch1 cells + ligand cells); format: cell-based; conditions: Jag1-induced; α-gD 2000 ng/ml; DAPT 5 μM
Method: as §2
as §3, with “Cells are allowed to recover from the transfection from 6 hours to overnight. Treatments of antibodies and NIH-3T3 cells stably transfected with ligand are used to stimulate the receptor cells.” left out

Notch signaling (Hes1 staining), large intestine ([1]; day 7)	goblet cell numbers (Alcian Blue and H&E), large intestine ([1]; day 7)	Hes1 expression, small intestine ([1]; day 7, DBZ 30 μmol/kg)	goblet cell population (Alcian Blue), small intestine ([1]; day 7, DBZ 30 μmol/kg)	intestinal cell fate changes at early time point ([1]; small intestine, day 2)	Structure (SMILES)	progenitor cell proliferation (Ki-67), large intestine ([1]; day 7)	Paneth cells (lysozyme staining), small intestine ([1]; day 7, DBZ 30 μmol/kg)	progenitor cell proliferation (Ki-67), small intestine ([1]; day 7, DBZ 30 μmol/kg)	endothelial cell sprouts (number and length) (HUVECs)	cell viability (LOX-IMVI melanoma cells)	cell viability (SK23 melanoma cells)	effect on Notch2 reporter signaling (Notch2 signaling)	effect on Notch1 reporter signaling (Notch1 signaling)
significantly reduced Notch signaling	increased goblet cell numbers	inhibition of Hes1 expression	dramatic expansion	only weakly detectable	C[C@H](NC(=O)Cc1cc(F)cc(F)c1)C(=O)N[C@@H]1C(=O)N(C)c2ccccc2-c2ccccc21 [DBZ]	blocked progenitor cell proliferation	increased the numbers and/or activity of Paneth cells	decrease in progenitor cell proliferation	increased both the number and length				
					C[C@H](NC(=O)Cc1cc(F)cc(F)c1)C(=O)N[C@H](C(=O)OC(C)(C)C)c1ccccc1 [DAPT, reference compound]					decrease in viability	decrease in viability	reduced to background	reduced to background
